Test results reported in patent publication US7608585B2, “Compositions for inhibition of necrosis induced by a neurotrophin” (Neurotech Pharmaceuticals Co., Ltd., priority 2004, dated 2009).

Assays:
Format in all cases: cell-based, Rat
ROS in cortical neurons = assay: ROS imaging by oxidized DCDHF-DA (DCF) and hydroethidine fluorescence
Description: Cortical cell cultures (DIV 12-15) grown on glass bottom dishes were loaded with 10 μM dichlorodihydro fluorescein diacetate (DCDHF-DA) or 5 μM hydroethidium (Molecular Probes, Eugene, Oreg.) plus 2% Pluronic F-127 in HEPES-buffered control salt solution (HCSS) buffer containing (in mM): 120 NaCl, 5 KCl, 1.6 MgCl2, 2.3 CaCl2, 15 glucose, 20 HEPES, and 10 NaOH. Cultures were incubated for 20 min at 37° C., and washed three times with HCSS buffer. […] The fluorescence images were analyzed using a QuantiCell 700 system (Applied imaging, UK).
Superoxide production through activation of NADPH oxidase was analyzed by measuring the oxidation of HEt and DCDHF to ethidium and DCF, respectively, in cortical neurons after exposure to a sham operation, 100 ng/ml BDNF, or 100 ng/ml BDNF plus 3 nM DPI for 32 hr (FIG. 15).

[1] = system: NADPH oxidase (p22-phox, gp91-phox, p47-phox) mRNA; assay: RT-PCR of NADPH oxidase subunit mRNA
Description: RT-PCR experiments were performed to confirm the BDNF-sensitive genes derived from cDNA expression microarray, cytochrome b558 as it constitutes p22-phox and gp91-phox subunits of NADPH oxidase, a pro-oxidant enzyme generating superoxide from oxygen.
Total RNA (1 μg each) was incubated in a reaction mixture containing dNTP (2.5 mM each), RNasin (0.5 Unit), oligo dT primer (100 ng), and MMLV reverse transcriptase (200 Unit) at 37° C. for 1 hr. The samples were incubated at 92° C. for 10 min and transferred to 4° C. The reverse transcribed cDNA was subjected to PCR amplification. PCR was performed according to manufacturer's procedure (Takara Shuzo Co., Japan) sequentially (denaturation-annealing-extension) at following conditions: for p47-phox, 94° C. for 30 S, 55° C. for 30 S, and 72° C. for 60 S (28 cycles); for p22-phox (homologous to cytochrome b558 in microarray) and gp91-phox, 94° C. for 45 S, 60° C. for 60 S, and 72° C. for 120 S (33 cycles); for GAPDH, 94° C. for 35 S, 55° C. for 45 S, and 72° C. for 90 S (25 cycles). Primer sequences used were as follows (5′-3′): for p22-phox, […] (forward) and […] (reverse); for p47-phox, CAGCCA […] (forward) and […] (reverse); for gp91-phox, […] TG (forward) and […] (reverse); for GAPDH, […] (forward) and […] (reverse). PCR products were run on a 1.2% agarose gel and visualized with ethidium bromide. The relative amount of mRNA was measured using LAS-1000 systems (Fuji Photofilm Co., Japan), normalized to levels of GAPDH mRNA. DNA sequencing was performed with Big Dye Terminator Chemistry from Perkin-Elmer Applied Biosystems on ABI PRISM™ 377 DNA sequencer (Foster City, Calif.)

[2] = system: NADPH oxidase subunits gp91-phox, p47-phox, p67-phox; assay: Western blot of NADPH oxidase subunits; details: over 16-32 hr exposure
Description: Western blot experiments were performed to analyze protein levels of NADPH oxidase subunits using available antibodies for gp91-phox, p47-phox, and p67-phox.
Cortical cell cultures were lysed in a lysis buffer containing 50 mM Tris-HCl (pH 7.5), 1% Nonidet P-40, 150 mM NaCl, 0.5% deoxycholic acid, 0.1% sodium dodecyl sulfate (SDS), 1 mM PMSF (phenylmethylsulfonyl fluoride), 10 μg/ml pepstain A, and 100 μg/ml leupeptin. Cell lysates were centrifuged at 12,000 g for 10 min. approximately 25 μg of protein was subjected to electrophoresis on 12% SDS-polyacrylamide gel and transferred to a nitrocellulose membrane. The blot was incubated in 2.5% bovine serum albumin for 1 hr, incubated with goat polyclonal primary antibodies, anti-gp91-phox, anti-p67-phox, or anti-p47-phox antibodies (1:1000, Santa Cruz, Santa Cruz, Calif.), and then reacted with a biotinylated anti-goat secondary antibody. Immunoreactivity was detected with Vectastain ABC kit (Vector Laboratory, Burlingame, Calif., USA) and luminol for enhanced chemiluminescence Intron, Korea). The signal was analyzed by quantitative densitometry using LAS-1000 systems (Fuji Photofilm Co., Japan).

[3] = system: p47-phox and p67-phox in cortical cell cultures; assay: Immunocytochemistry of p47-phox and p67-phox; details: 32 hr following exposure
Description: Immunocytochemistry was performed to identify which types of cells express NADPH oxidase in cortical cell cultures containing neurons and glia.
Cortical cell cultures (DIV 12-14) grown on glass bottom dishes were fixed in 4% paraformaldehyde for 30 min, incubated in 10% horse serum for 1 hr, and double-immunolabeled with a mouse monoclonal antibody against NeuN (1:400 dilution, Chemicon, Temecula, Calif.) and a goat polyclonal antibody against p47-phox or p67-phox (1:200 dilution, Santa Cruz, Santa Cruz, Calif.) for 2-4 hr. Cultures were then reacted with fluorescein isothiocyanate-conjugated anti-goat IgG (1:200 dilution, Organon Teknika Corp., NC) and Texas red-conjugated anti-mouse IgG (1:200, Vector Laboratory, Burlingame, Calif.) for 1-2 hr. The fluorescence images were collected and analyzed with a fluorescence microscopy (Zeiss, Germany) equipped with the Real-14™ precision digital camera (Apogee Instrument, Tucson, Ariz.) and ImagePro Plus Plug-in (Silver Spring, Md.).

[4] = system: NADPH oxidase activation (p47-phox, p67-phox); assay: Subcellular fractionation and western blot, translocation of p47-phox and p67-phox; details: exposed for 16-32 hr
Description: Activation of NADPH oxidase involves translocation of the cytosolic p47-phox and p67-phox subunits into the plasma membrane (Clark et al., 1989, Trans. Assoc. Am. Physicians., 102, 224-230). We examined if treatment with BDNF would activate NADPH oxidase through isolating the cytosol and membrane fraction.
Cortical cell cultures were washed with ice-cold PBS and resuspended in an isotonic buffer containing 10 mM HEPES, pH 8.0, 250 mM sucrose, 1 mM EDTA, 1 mM EGTA, 1 mM dithiothreitol (DTT), 2 mM PMSF, 100 μg/ml leupeptin, and 10 μg/ml pepstatin A. For isolating the cytosol and membrane fraction, the lysate was homogenized with a homogenizer (KONTE, Vieland, N.J.), centrifuged at 9,000 g for 10 min, and the supernatant was then centrifuged at 100,000 g for 1 hr.
The membrane fraction was obtained by resuspending the pellet with 50 μl lysis buffer and the cytosolic fraction was obtained from the supernatant. As shown in <EXAMPLE 7-4>, western blot experiments were performed to analyze protein levels of NADPH oxidase subunits using available antibodies for gp91-phox, p47-phox, and p67-phox.

[5] = system: Neuron-rich cortical cell cultures; assay: Serum deprivation-induced neuronal apoptosis, counting viable neurons
Description: For neuron-glia mixed cultures, 10 μM cytosine arabinoside (Ara C) was included to stop the overgrowth of non-neuronal cells to cultures at DIV 5-7 when glial cells were confluent underneath neurons. After 2 days, cultures were then fed with plating medium lacking fetal serum twice a week. Cultures were maintained at 37° C. in a humidified 5% CO2 incubator. For neuron-rich cultures (>95%), 2.5 μM Ara C was included to cultures at 2-3 days in vitro (DIV 2-3) as previously described (Gwag et al., 1997).
Mixed cortical cell cultures (DIV 12-14) were rinsed in serum free MS (MEM supplemented with 26.5 mM sodium bicarbonate and 21 mM glucose) and then exposed to various concentrations of NGF, BDNF or NT-3 in serum free MS. Neuronal cell death was analyzed by measuring the level of lactate dehydrogenase (LDH) released into the bathing medium. The percent neuronal death was normalized to the mean LDH value released after a sham control (defined as 0%) or continuous exposure to 500 μM NMDA for 24 hr (defined as 100%) The latter produces complete neuronal death within 24 hr. For experiments for serum deprivation, neuron-rich cortical cell cultures (DIV 7) were placed into serum free MS containing 1 μM MK-801 as described (Gwag et al., 1995). Neuronal death was analyzed 24 and 48 hr later by counting viable neurons excluding Trypan Blue satained.
Neuron-rich cortical cell cultures (DIV 7) were deprived of serum, alone (serum deprivation) or in the presence of 100 ng/ml BDNF, 100 ng/ml BDNF plus 3 nM DPI, 3 nM DPI, 100 ng/ml BDNF plus 100 μM trolox, or 100 μM trolox. Neuronal death was assessed 24 hr and 48 hr later by counting viable neurons.

BDNF: brain-derived neurotrophic factor, a neurotrophin
Oxidation of HEt and DCDHF (ROS in cortical neurons; 100 ng/ml BDNF for 32 hr): increased oxidation | Fluorescent intensity of DCF in cortical neurons (ROS in cortical neurons; exposed for 16 hr): increased | Intraneuronal levels of ROS ([ROS]i) (ROS in cortical neurons; over 24-32 hr): further increased | mRNA levels of p22-phox and gp91-phox ([1]; 4 hr later, lasted over the next 12 hr): maximally increased | mRNA levels of p47-phox subunit ([1]; from 30 min following administration): increased gradually | mRNA levels of p22-phox and gp91-phox ([1]; within 2 hr after treatment): increase | Protein levels of NADPH oxidase subunits gp91-phox, p47-phox, and p67-phox [2]: increased | Signals of p47-phox and p67-phox (immunoreactivity) [3]: increased exclusively in neurons | Levels of p47-phox and p67-phox in cytosolic and membrane fraction [4]: reduced in the cytosolic fraction and increased in the membrane fraction | Protective effects of BDNF following serum deprivation ([5]; 100 ng/ml, within 48 hrs): disappeared | Neuronal apoptosis ([5]; serum deprivation, 100 ng/ml BDNF): prevented neuronal apoptosis
